Assay results as given in US20040023994A1 (priority 2002, published 2004).
Read-outs that look alike come from different tables or passages of the source.

How the values were obtained:
SW-620 = settings: SW-620, Colon, NCI database, cited from earlier work; for CC50: read-out: LC50 (the source's name)
TK-10 = assay type: cell-based; settings: TK-10, Renal, 48 h
SF-268 = settings: for CC50: read-out: LC50
DU-145 = assay type: cell-based; settings: DU-145, Prostate, 48 h
HL-60(TB) = assay: cells; settings: Homo sapiens, HL-60, 48 h
NCI-H522 = settings: NCI-H522, Non-Small Cell Lung, 48 h
[1] = Homo sapiens, read-out: LC50 (the source's name)

For `Nc1nc2nc[nH]c2c(=S)[nH]1` [6-TG, 6-thioguanine], the GI50 (SW-620) is listed as 1.52 µM, the TGI (SW-620) is listed as over 100 µM and the CC50 (SW-620) is listed as over 100 µM.
`CC(=O)C=CSc1ncnc2nc[nH]c12` [cis-AVTP, 6-(2-acetylvinylthio) purine] showed a GI50 (TK-10; Homo sapiens) of 0.03 µM, a CC50 (TK-10; [1]) of 13.9 µM and a TGI (TK-10) of 0.64 µM. It also gave a GI50 (SF-268; Homo sapiens, SF-268, 48 h) of under 0.01 µM, a CC50 (SF-268; Homo sapiens, SF-268, 48 h) of 27.7 µM and a TGI (SF-268; SF-268, CNS, 48 h) of 0.24 µM. The TGI (DU-145) was 3.97 µM, the GI50 (DU-145; Homo sapiens) was 1.32 µM and the CC50 (DU-145; [1]) was 24.4 µM. It also gave a GI50 (HL-60(TB)) of 0.49 µM and a CC50 (HL-60(TB); read-out: LC50) of over 100 µM.
In the case of `Sc1ncnc2nc[nH]c12` [6-MP, 6-mercaptopurine], the GI50 (SW-620) is listed as 6.82 µM, the TGI (SW-620) is listed as over 100 µM and the CC50 (SW-620) is listed as over 100 µM.
With `CC(=O)C=CSc1nc(N)nc2nc[nH]c12` [trans-AVTG, 6-(2-acetylvinylthio) guanine] the GI50 (NCI-H522) was 0.02 µM, the TGI (NCI-H522) was 0.05 µM and the CC50 (NCI-H522; read-out: LC50) was 8.28 µM. For the same molecule, the GI50 (MALME-3M; Melanoma, 48 h) was 0.37 µM, the TGI (MALME-3M; Melanoma, 48 h) was 3.07 µM and the CC50 (MALME-3M; read-out: LC50, Melanoma, 48 h) was 29.3 µM. It also gave a GI50 (SF-268; SF-268, CNS, 48 h) of under 0.01 µM, a TGI (SF-268; SF-268, CNS, 48 h) of 0.43 µM and a CC50 (SF-268; SF-268, CNS, 48 h) of 24.4 µM.
